The source of these data is article PMC3044687, “The C-Terminal Domain of the Arabinosyltransferase Mycobacterium tuberculosis EmbC Is a Lectin-Like Carbohydrate Binding Module” (PLoS Pathogens, 2011).

As a reminder, the Kd is the equilibrium constant for the complex coming apart. Low readings indicate a tighter complex, high ones a looser complex.

In experiment [1] the target is EmbC^CT (C-terminal domain of M. tuberculosis EmbC, residues 719–1094) (Mycobacterium tuberculosis, UniProt P9WNL5). The experiment can be described thus: Solution binding assay by intrinsic tryptophan fluorescence, wild-type EmbC^CT. The conditions noted are these: wild-type EmbC^CT 20 µM, 50 mM KH2PO4 pH 7.9, 300 mM NaCl; single site saturation fit. The protocol: Intrinsic tryptophan fluorescence (ITF) experiments were carried out using a PTI QuantaMaster 40 spectrofluorimeter, recording data with the FeliX32 software package (PTI, Birmingham, New Jersey, USA). The excitation wavelength was set to 294 nm and the fluorescence emission (Femission) was recorded between 300–400 nm for each ligand aliquot added to a 200 µl solution containing 20 µM EmbC^CT in 50 mM KH2PO4 (pH 7.9), 300 mM NaCl. […] The change in fluorescence emission (ΔFemission) was calculated by subtracting Femission (recorded 2 min after each ligand addition) from Femission^max, and the data was then plotted against ligand concentration, [L] (3 independent experiments). A plot of ΔFemission at λ = 338 nm vs. [L] was fitted to the saturation binding equation using GraphPad Prism software: [drawing 1]

In experiment [2] the test system is Araf transferase (isolated mycobacterial membranes). The conditions noted are these: incubated with [14C]-labelled Araf-donor DPA and isolated mycobacterial membranes; cited from earlier work.

EmbC^CT (C-terminal domain of M. tuberculosis EmbC, residues 719–1094), sequence (P9WNL5 719-1094 limits assumed): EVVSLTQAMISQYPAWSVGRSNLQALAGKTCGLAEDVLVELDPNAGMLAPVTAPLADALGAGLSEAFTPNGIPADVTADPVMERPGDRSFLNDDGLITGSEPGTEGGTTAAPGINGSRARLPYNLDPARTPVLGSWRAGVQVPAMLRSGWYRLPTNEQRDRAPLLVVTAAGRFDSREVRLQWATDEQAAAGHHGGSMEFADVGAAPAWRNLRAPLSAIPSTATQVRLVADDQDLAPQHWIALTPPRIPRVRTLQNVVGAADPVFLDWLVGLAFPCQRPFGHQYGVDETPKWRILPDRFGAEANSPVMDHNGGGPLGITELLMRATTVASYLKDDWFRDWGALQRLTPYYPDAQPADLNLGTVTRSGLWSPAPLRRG

In experiment [1], `CCCCCCCCO[C@H]1O[C@H](CO[C@H]2O[C@H](CO[C@H]3O[C@H](CO)[C@@H](O)[C@@H]3O)[C@@H](O)[C@@H]2O)[C@@H](O)[C@@H]1O` [Ara(1→5)2Ara-O-C8, [α-D-Araf-(1→5)]2-α-D-Araf-O-(CH2)7CH3] yielded an Fmax of 0.105 and an equilibrium dissociation constant (Kd) of 25.3 µM. In experiment [1], `CO[C@H]1O[C@H](CO[C@H]2O[C@H](CO)[C@@H](O)[C@@H]2O)[C@@H](O)[C@@H]1O` [Ara(1→5)Ara-O-C1, α-D-Araf-(1→5)-α-D-Araf-O-CH3] registered an Fmax of 0.26 and a dissociation constant (Kd) of 11 µM. With `CCCCCCCCO[C@H]1O[C@H](CO[C@H]2O[C@H](CO[C@H]3O[C@H](CO[C@H]4O[C@H](CO[C@H]5O[C@H](CO)[C@@H](O)[C@@H]5O)[C@@H](O)[C@@H]4O)[C@@H](O)[C@@H]3O)[C@@H](O)[C@@H]2O)[C@@H](O)[C@@H]1O` [Ara(1→5)4Ara-O-C8, [α-D-Araf-(1→5)]4-α-D-Araf-O-(CH2)7CH3], in experiment [1], the Fmax came out at 0.157. Consider `CCCCCCCCO[C@H]1O[C@H](CO[C@H]2O[C@H](CO)[C@@H](O)[C@@H]2O)[C@@H](O)[C@@H]1O` [Ara(1→5)Ara-O-C8, α-D-Araf-(1→5)-α-D-Araf-O-(CH2)7CH3], for which the “acceptor activity (in words)” value in experiment [2] is reported as “potent acceptor mimics”. The Fmax in experiment [1] is reported as 0.22.
